In brackets after ≈: the same amount, converted by molar mass.
What was measured:
[1] = Cytotoxicity against African green monkey Vero cells after 72 hrs by MTT assay; assay type: toxicity, cell-based; conditions: chlorocebus sabaeus
[2] = Cytotoxicity against human erythrocytes; assay type: toxicity, cell-based, Erythrocyte
Plasmodium falciparum [3] = assay: Antimalarial activity against Plasmodium falciparum 3D7 infected in A+ human erythrocytes assessed as reduction in parasite growth incubated for 72 hrs by SYBR Green I staining based analysis; assay type: functional, organism-based; conditions: 3D7, Erythrocyte
Plasmodium knowlesi = assay: Antimalarial activity against Plasmodium knowlesi A1H1; assay type: functional, organism-based
Plasmodium falciparum [4] = assay: Antimalarial activity against Plasmodium falciparum Dd2 infected in A+ human erythrocytes assessed as reduction in parasite growth incubated for 72 hrs by SYBR Green I staining based analysis; assay type: functional, organism-based; conditions: Dd2, Erythrocyte
[5] = Inhibition of Plasmodium falciparum SR21
Plasmodium falciparum [6] = assay: Antimalarial activity against Plasmodium falciparum 3D7 assessed as inhibition of parasitemia incubated for 72 hrs by fluorescence based assay; assay type: functional, organism-based; conditions: 3D7, 72 h
Plasmodium falciparum [7] = assay: Antiplasmodial activity against CQ-susceptible Plasmodium falciparum 3D7 assessed as parasite growth inhibition incubated for 72 hrs by SYBR Green I staining based analysis; assay type: functional, organism-based; conditions: 3D7, 72 h
[8] = Cytotoxicity against African green monkey Vero cells assessed as cell growth inhibition incubated for 24 hrs by fluorescence based assay; assay type: toxicity; conditions: African green monkey (Chlorocebus sabaeus)
Plasmodium falciparum [9] = assay: Antiplasmodial activity against CQ-resistant Plasmodium falciparum W2 assessed as parasite growth inhibition incubated for 72 hrs by SYBR Green I staining based analysis; assay type: functional, organism-based; conditions: W2, 72 h
Plasmodium falciparum [10] = assay: Antimalarial activity against Plasmodium falciparum K1 assessed as parasite growth inhibition; assay type: functional, organism-based
Plasmodium falciparum [11] = assay: Antimalarial activity against Plasmodium falciparum 3D7 assessed as parasite growth inhibition; assay type: functional, organism-based
Plasmodium falciparum [12] = assay: Antimalarial activity against Plasmodium falciparum W2; assay type: functional, organism-based
Plasmodium falciparum [13] = assay: Antimalarial activity against Plasmodium falciparum D6; assay type: functional, organism-based
[14] = Cytotoxicity against human Huh-7 cells by MTT assay; assay type: toxicity, cell-based
Plasmodium falciparum [15] = assay: Antiplasmodial activity against Plasmodium falciparum 3D7 at asexual erythrocytic stage infected in human erythrocytes assessed as parasite growth inhibition incubated for 42 hrs by [3H]-hypoxanthine incorporation assay; assay type: functional, organism-based; conditions: 3D7, Erythrocyte
Plasmodium falciparum [16] = assay: Antiplasmodial activity against CQ-resistant Plasmodium falciparum K1 at asexual erythrocyte stage by LDH assay; assay type: functional, organism-based
Plasmodium falciparum [17] = assay: Antiplasmodial activity against CQ-sensitive Plasmodium falciparum NF54 at asexual erythrocyte stage by LDH assay; assay type: functional, organism-based
Plasmodium falciparum [18] = assay: Antimalarial activity against Plasmodium falciparum 3D7 at asexual stage infected in erythrocytes assessed as parasite growth inhibition incubated for 72 hrs by MSF assay; assay type: functional, organism-based; conditions: 3D7, Erythrocyte
Plasmodium falciparum [19] = assay: Antimalarial activity against CQ-sensitive Plasmodium falciparum 3D7 at trophozoite stage infected in O+ human erythrocytes assessed as parasite growth inhibition in presence of 2.97 uM thiamine by SYBR staining based analysis; assay type: functional, organism-based; conditions: 3D7, Erythrocyte
Plasmodium falciparum [20] = assay: Antimalarial activity against CQ-sensitive Plasmodium falciparum 3D7 at trophozoite stage infected in O+ human erythrocytes assessed as parasite growth inhibition in presence of 297 uM thiamine by SYBR staining based analysis; assay type: functional, organism-based; conditions: 3D7, Erythrocyte
Plasmodium falciparum [21] = assay: Antimalarial activity against CQ-resistant Plasmodium falciparum RKL9 infected in O+ human RBCs assessed as parasite growth inhibition by SYBR Green I staining based assay; assay type: functional, organism-based; conditions: RKL9, Erythrocyte
Plasmodium falciparum [22] = assay: Antimalarial activity against CQ-sensitive Plasmodium falciparum 3D7 infected in O+ human RBCs assessed as parasite growth inhibition by SYBR Green I staining based assay; assay type: functional, organism-based; conditions: 3D7, Erythrocyte
Plasmodium falciparum [23] = assay: Antimalarial activity against Plasmodium falciparum 3D7 by SYBR green dye based analysis; assay type: functional, organism-based
Plasmodium falciparum [24] = assay: Antimalarial activity against Plasmodium falciparum NF54 infected in human erythrocytes assessed as inhibition of parasitemia by giemsa staining based analysis; assay type: functional, organism-based; conditions: NF54, Erythrocyte

CCN(CC)CCCC(C)Nc1ccnc2cc(Cl)ccc12 (configuration not stated) [CHLOROQUINE]
CC50 at 72 h [1]: 112 µM
CC50 [2]: > 100 µg/mL
EC50 (Plasmodium falciparum [3]): 0.0127 µM
EC50 (Plasmodium knowlesi): 0.21 µM
EC50 (Plasmodium falciparum [4]): 0.166 µM

O/N=C/c1cn(-c2ccc(Cl)cc2)nn1
IC50 [5]: 0.89 µM
IC50 (Plasmodium falciparum [6]): 6.67 µM

OB1OCc2cc(OCc3cn(CCNc4ccnc5cc(Cl)ccc45)nn3)ccc21
IC50 (Plasmodium falciparum [7]): 4.15 µM
IC50 at 24 h [8]: > 100 µM
IC50 (Plasmodium falciparum [9]): 3.78 µM

CCCCCCCCCC(=O)OCc1cn(-c2ccc(Cl)cc2)nn1
IC50 [5]: 1.55 µM
IC50 (Plasmodium falciparum [6]): 2.8 µM

COc1cc(/C=C/C(=O)c2cc3ccccc3oc2=O)ccc1OCc1cn(-c2ccnc3cc(Cl)ccc23)nn1
IC50 (Plasmodium falciparum [10]): > 5 µM
IC50 (Plasmodium falciparum [11]): > 5 µM

OB1OCc2cc(OCc3cn(-c4ccnc5ccc(Cl)cc45)nn3)ccc21
IC50 (Plasmodium falciparum [7]): 4.87 µM
IC50 (Plasmodium falciparum [9]): 5.22 µM

CCCCCCCCCn1cc(C(=O)OC)nn1
IC50 (Plasmodium falciparum [12]): 6.67 µM
IC50 (Plasmodium falciparum [13]): 11.2 µM

Cc1cc(C)nc(NS(=O)(=O)c2ccc(-n3cc(COc4ccc([N+](=O)[O-])cc4)nn3)cc2)n1
CC50 [14]: 7.5 µg/mL (≈ 15.6 µM)
IC50 (Plasmodium falciparum [15]): 6.2 µg/mL (≈ 12.9 µM)

OB1OCc2cc(OCc3cn(CCN4CCN(c5ccnc6cc(Cl)ccc56)CC4)nn3)ccc21
IC50 (Plasmodium falciparum [7]): 5.31 µM
IC50 at 24 h [8]: 82.4 µM
IC50 (Plasmodium falciparum [9]): 4.86 µM

Clc1ccc2c(NCCn3cc(-c4ccnc(-c5ccccn5)c4)nn3)ccnc2c1
IC50 (Plasmodium falciparum [16]): 0.275 µM
IC50 (Plasmodium falciparum [17]): 0.098 µM

O=C(Cn1cc(-c2ccccc2)nn1)NCCCNc1ccnc2cc(Cl)ccc12
IC50 (Plasmodium falciparum [18]): 0.137 µM

Cc1ncc(Cn2cc(CCOC(=O)c3cccc(Cl)c3)nn2)c(N)n1
IC50 (Plasmodium falciparum [19]): 62 µM
IC50 (Plasmodium falciparum [20]): 79 µM

CCCCCCCn1cc(CO)nn1
IC50 (Plasmodium falciparum [12]): 6.63 µM
IC50 (Plasmodium falciparum [13]): 13.3 µM

Cc1ccccc1C(=O)/C=C/c1cn(Cc2cn(-c3ccnc4cc(Cl)ccc34)nn2)c2ccccc12
IC50 (Plasmodium falciparum [21]): 2.72 µM
IC50 (Plasmodium falciparum [22]): 1.81 µM

Clc1cc(Cl)cc(-n2cc(/C=N/Nc3ccc(Br)cc3)nn2)c1
IC50 [5]: 12.4 µM
IC50 (Plasmodium falciparum [6]): 29.3 µM

O=C(Cn1cc(COc2ccc(Br)cc2)nn1)NCCNc1ccnc2cc(Cl)ccc12
IC50 (Plasmodium falciparum [18]): 0.04 µM
CC50 at 72 h [1]: 28.9 µM

CCOC(=O)c1n[nH]c(-c2ccccn2)n1
IC50 (Plasmodium falciparum [23]): 176 µM

Cc1ncc(Cn2cc(CCOC(=O)c3ccccc3)nn2)c(N)n1
IC50 (Plasmodium falciparum [20]): > 200 µM

C[C@@H]1CC[C@H]2[C@@H](C)C(=O)O[C@@H]3O[C@@]4(C)CC[C@@H]1[C@]32OO4 [ARTEMISININ]
IC50 (Plasmodium falciparum [12]): 0.094 µM

Clc1ccc2c(Nc3nc[nH]n3)cccc2c1
IC50 (Plasmodium falciparum [24]): 42.6 µM

COc1cc(/C=C/C(=O)c2ccc(Cl)cc2)ccc1OCc1cn(-c2ccnc3cc(Cl)ccc23)nn1
IC50 (Plasmodium falciparum [10]): 3.55 µM
IC50 (Plasmodium falciparum [11]): 4.12 µM

COc1ccccc1C(=O)/C=C/c1cn(Cc2cn(-c3ccnc4cc(Cl)ccc34)nn2)c2ccccc12
IC50 (Plasmodium falciparum [21]): 3.55 µM
IC50 (Plasmodium falciparum [22]): 2.44 µM

O=C1CC(c2n[nH]c(=S)n2-c2ccccc2)CN1Cc1ccccc1 (configuration not stated)
EC50 (Plasmodium knowlesi): 28.9 µM

O=C(Cn1cc(COc2ccc(Cl)cc2)nn1)NCCNc1ccnc2cc(Cl)ccc12
IC50 (Plasmodium falciparum [18]): 0.04 µM
CC50 at 72 h [1]: 86.8 µM
